Among the data in ChEMBL document CHEMBL1287676, “Oleanane-type triterpenoids from Panax stipuleanatus and their anticancer activities” (Bioorg Med Chem Lett, 2010) are IC50 and Activity values, retold here.

Active and inactive are the calls of the source. The calls are words filed in the database; no cut-off is given here. Bounds are passed on as bounds.

For experiment [1], the system named is HCT-116. Description: Cytotoxicity against human HCT116 cells by MTT assay. In kind it is functional, cell-based. Background: Tetrazolium dyes change colour on reduction, which living cells bring about.
In experiment [2] the test system is HL-60. Kind of experiment: Cytotoxicity against human HL60 cells by MTT assay. In kind it is functional, cell-based.
For experiment [3], the system named is HCT-116. Kind of experiment: Induction of apoptosis in human HCT116 cells assessed as increase in caspase-9 activation by Western blotting. In kind it is functional, cell-based. (Immunoblotting shows a protein as a band on a membrane.)
The subject of experiment [4] is HL-60. Description: Induction of apoptosis in human HL60 cells assessed as membrane blebbing at IC50 concentration after 24 to 48 hrs using Hoechst 33342 staining by fluorescence microscope. In kind it is functional, cell-based.
The test system of experiment [5] is HCT-116. Description: Induction of apoptosis in human HCT116 cells assessed as chromatin condensation at IC50 concentration after 24 to 48 hrs using Hoechst 33342 staining by fluorescence microscope. In kind it is functional, cell-based.
The test system of experiment [6] is HL-60. Description: Induction of apoptosis in human HL60 cells assessed as cell shrinkage at IC50 concentration after 24 to 48 hrs using Hoechst 33342 staining by fluorescence microscope. In kind it is functional, cell-based.
Experiment [7] has as its system HCT-116. Kind of experiment: Induction of apoptosis in human HCT116 cells assessed as increase in expression of DR5 by Western blotting. In kind it is functional, cell-based.
Experiment [8] has as its system HCT-116. Description: Induction of apoptosis in human HCT116 cells assessed as cell shrinkage at IC50 concentration after 24 to 48 hrs using Hoechst 33342 staining by fluorescence microscope. In kind it is functional, cell-based.
Experiment [9] deals with HCT-116. Description: Induction of apoptosis in human HCT116 cells assessed as increase in induction of PARP cleavage by Western blotting. In kind it is functional, cell-based.
The subject of experiment [10] is HL-60. Description: Induction of apoptosis in human HL60 cells assessed as chromatin condensation at IC50 concentration after 24 to 48 hrs using Hoechst 33342 staining by fluorescence microscope. In kind it is functional, cell-based.
Experiment [11] concerns HCT-116. Description: Induction of apoptosis in human HCT116 cells assessed as membrane blebbing at IC50 concentration after 24 to 48 hrs using Hoechst 33342 staining by fluorescence microscope. In kind it is functional, cell-based.
In experiment [12] the test system is HCT-116. Description: Induction of apoptosis in human HCT116 cells assessed as increase in expression of Bax by Western blotting. In kind it is functional, cell-based.
Experiment [13] has as its target Mitogen-activated protein kinase; ERK1/ERK2 (Homo sapiens) (UniProt P27361+P28482). Description: Activation of ERK1/2 in human HCT116 cells assessed as phosphorylated ERK1/2 level by Western blotting. In kind it is cell-based. The settings on record: HCT-116.
For experiment [14], the system named is HCT-116. Description: Induction of apoptosis in human HCT116 cells assessed as decrease in expression of BCL-2 by Western blotting. In kind it is functional, cell-based.

Chain of Mitogen-activated protein kinase; ERK1/ERK2 (Homo sapiens) (P27361 whole entry, looked up): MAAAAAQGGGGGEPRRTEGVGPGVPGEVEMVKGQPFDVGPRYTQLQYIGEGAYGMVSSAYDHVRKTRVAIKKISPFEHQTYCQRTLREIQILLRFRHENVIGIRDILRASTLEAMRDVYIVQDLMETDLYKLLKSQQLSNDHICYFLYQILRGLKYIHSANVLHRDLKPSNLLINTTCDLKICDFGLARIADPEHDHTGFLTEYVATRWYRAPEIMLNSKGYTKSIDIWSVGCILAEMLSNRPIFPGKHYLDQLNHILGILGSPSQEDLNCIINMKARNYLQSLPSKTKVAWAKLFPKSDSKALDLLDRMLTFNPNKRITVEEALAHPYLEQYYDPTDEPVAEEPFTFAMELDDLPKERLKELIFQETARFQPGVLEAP
Chain of Mitogen-activated protein kinase; ERK1/ERK2 (Homo sapiens) (P28482 whole entry, looked up): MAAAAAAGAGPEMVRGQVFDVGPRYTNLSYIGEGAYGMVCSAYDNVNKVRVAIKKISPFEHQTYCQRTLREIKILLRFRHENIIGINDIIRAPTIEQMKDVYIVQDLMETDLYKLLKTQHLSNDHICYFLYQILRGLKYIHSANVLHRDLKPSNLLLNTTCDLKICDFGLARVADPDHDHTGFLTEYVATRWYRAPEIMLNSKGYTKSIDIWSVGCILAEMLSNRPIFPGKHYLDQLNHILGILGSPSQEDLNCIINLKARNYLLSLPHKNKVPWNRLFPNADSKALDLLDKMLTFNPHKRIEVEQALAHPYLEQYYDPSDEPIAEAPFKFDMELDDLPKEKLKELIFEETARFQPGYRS

In general, IC50 refers to the point on the concentration scale where inhibition reaches its midpoint. Read a high IC50 as lower potency. With `CC1(C)CC[C@]2(C(=O)O[C@@H]3O[C@H](CO)[C@@H](O)[C@H](O)[C@H]3O)CC[C@]3(C)C(=CC[C@@H]4[C@@]5(C)CC[C@H](O[C@@H]6O[C@H](C(=O)O)[C@@H](O)[C@H](O[C@@H]7O[C@H](CO)[C@@H](O)[C@H](O)[C@H]7O)[C@H]6O)C(C)(C)[C@@H]5CC[C@]43C)[C@@H]2C1`, the IC50 in the experiment on HCT-116 [1] is greater than 100 µM; with HL-60 [2], 73 µM.

As for `CC1(C)CC[C@]2(C(=O)O)CC[C@]3(C)C(=CC[C@@H]4[C@@]5(C)CC[C@H](O)C(C)(C)[C@@H]5CC[C@]43C)[C@@H]2C1` [OLEANOLIC_ACID], the IC50 with HCT-116 [1] stood at 4.8 µM; in the experiment on HL-60 [2] it was 77.5 µM.

As for `COC(=O)[C@H]1O[C@@H](O[C@H]2CC[C@]3(C)[C@H]4CC=C5[C@@H]6CC(C)(C)CC[C@]6(C(=O)O[C@@H]6O[C@H](CO)[C@@H](O)[C@H](O)[C@H]6O)CC[C@@]5(C)[C@]4(C)CC[C@H]3C2(C)C)[C@H](O)[C@@H](O[C@@H]2O[C@H](CO)[C@@H](O)[C@H](O)[C@H]2O)[C@@H]1O[C@H]1O[C@@H](CO)[C@H](O)[C@H]1O` [STIPULEANOSIDE R2 METHYL ESTER], the 50% inhibitory concentration (IC50) was greater than 100 µM in the experiment on HCT-116 [1] and 67.1 µM with HL-60 [2].

For `COC(=O)[C@H]1O[C@@H](O[C@H]2CC[C@]3(C)[C@H]4CC=C5[C@@H]6CC(C)(C)CC[C@]6(C(=O)O[C@@H]6O[C@H](CO)[C@@H](O)[C@H](O)[C@H]6O)CC[C@@]5(C)[C@]4(C)CC[C@H]3C2(C)C)[C@H](O[C@H]2OC[C@@H](O)[C@H](O)[C@H]2O)[C@@H](O)[C@@H]1O` [PSEUDOGINSENOSIDE RT1 METHYL ESTER], the 50% inhibitory concentration (IC50) in the experiment with HCT-116 [1] and with HL-60 [2] was greater than 100 µM throughout.

For `COC(=O)[C@H]1O[C@@H](O[C@H]2CC[C@]3(C)[C@H]4CC=C5[C@@H]6CC(C)(C)CC[C@]6(C(=O)O)CC[C@@]5(C)[C@]4(C)CC[C@H]3C2(C)C)[C@H](O[C@H]2OC[C@@H](O)[C@H](O)[C@H]2O)[C@@H](O)[C@@H]1O` [PESUDOGINSENOSIDE RP1 METHYL ESTER], the IC50 is 6.5 µM in the experiment with HCT-116 [1] and 41.5 µM with HL-60 [2]. The outcome with HCT-116 [3], with HL-60 [4], in the experiment with HCT-116 [5], in the experiment on HL-60 [6], in the experiment with HCT-116 [7] and in the experiment on HCT-116 [8] was Active. Besides, the outcome (with HCT-116 [9]; with HL-60 [10]; in the experiment on HCT-116 [11]; in the experiment on HCT-116 [12]; in [13]; in the experiment with HCT-116 [14]) was Active.

As to `COC(=O)[C@H]1O[C@@H](O[C@H]2CC[C@]3(C)[C@H]4CC=C5[C@@H]6CC(C)(C)CC[C@]6(C(=O)O[C@@H]6O[C@H](CO)[C@@H](O)[C@H](O)[C@H]6O)CC[C@@]5(C)[C@]4(C)CC[C@H]3C2(C)C)[C@H](O)[C@@H](O)[C@@H]1O[C@H]1O[C@@H](CO)[C@H](O)[C@H]1O` [ARALOSIDE A METHYL ESTER], the half-maximal inhibitory concentration (IC50) was greater than 100 µM with HCT-116 [1] and 63.4 µM in the experiment with HL-60 [2].

As for `O=C1c2c(O)ccc(O)c2C(=O)c2c(NCCNCCO)ccc(NCCNCCO)c21` [MITOXANTRONE], the IC50 is 3.96 µM with HCT-116 [1] and 7.5 µM with HL-60 [2].

Regarding `CC1(C)CC[C@]2(C(=O)O[C@@H]3O[C@H](CO)[C@@H](O)[C@H](O)[C@H]3O)CC[C@]3(C)C(=CC[C@@H]4[C@@]5(C)CC[C@H](O[C@@H]6O[C@H](C(=O)O)[C@@H](O)[C@H](O)[C@H]6O)C(C)(C)[C@@H]5CC[C@]43C)[C@@H]2C1` [CHIKUSETSUSAPONIN IVA], the 50% inhibitory concentration (IC50) in the experiment with HCT-116 [1] was 78.1 µM; with HL-60 [2], 76.2 µM.

For `COC(=O)[C@H]1O[C@@H](O[C@H]2CC[C@]3(C)[C@H]4CC=C5[C@@H]6CC(C)(C)CC[C@]6(C(=O)O[C@@H]6O[C@H](CO)[C@@H](O)[C@H](O)[C@H]6O)CC[C@@]5(C)[C@]4(C)CC[C@H]3C2(C)C)[C@H](O)[C@@H](O[C@@H]2O[C@H](CO)[C@@H](O)[C@H](O)[C@H]2O)[C@@H]1O`, the IC50 with HCT-116 [1] was greater than 100 µM; in the experiment on HL-60 [2] it was 83.9 µM.

In the case of `CC1(C)CC[C@]2(C(=O)O[C@@H]3O[C@H](CO)[C@@H](O)[C@H](O)[C@H]3O)CC[C@]3(C)C(=CC[C@@H]4[C@@]5(C)CC[C@H](O[C@@H]6O[C@H](CO)[C@@H](O)[C@H](O)[C@H]6O[C@H]6OC[C@@H](O)[C@H](O)[C@H]6O)C(C)(C)[C@@H]5CC[C@]43C)[C@@H]2C1`, the results for the IC50 with HCT-116 [1] and with HL-60 [2] were 75.9 µM and greater than 100 µM, respectively.

Regarding `COC(=O)[C@H]1O[C@@H](O[C@H]2CC[C@]3(C)[C@H]4CC=C5[C@@H]6CC(C)(C)CC[C@]6(C(=O)O)CC[C@@]5(C)[C@]4(C)CC[C@H]3C2(C)C)[C@H](O)[C@@H](O[C@@H]2O[C@H](CO)[C@@H](O)[C@H](O)[C@H]2O)[C@@H]1O` [SPINASAPONIN A METHYL ESTER], the results for the half-maximal inhibitory concentration (IC50) with HCT-116 [1] and with HL-60 [2] were 0.63 µM and 4.44 µM, respectively. The outcome in the experiment on HCT-116 [3], with HL-60 [4], with HCT-116 [5], in the experiment on HL-60 [6], in the experiment with HCT-116 [7] and in the experiment with HCT-116 [8] was Active. In addition, the outcome (in the experiment with HCT-116 [9]; in the experiment with HL-60 [10]; in the experiment on HCT-116 [11]; with HCT-116 [12]; in [13]; in the experiment on HCT-116 [14]) was Active.

In the case of `CC1(C)CC[C@]2(C(=O)O[C@@H]3O[C@H](CO)[C@@H](O)[C@H](O)[C@H]3O)CC[C@]3(C)C(=CC[C@@H]4[C@@]5(C)CC[C@H](O[C@@H]6O[C@H](C(=O)O)[C@@H](O)[C@H](O)[C@H]6O[C@H]6OC[C@@H](O)[C@H](O)[C@H]6O)C(C)(C)[C@@H]5CC[C@]43C)[C@@H]2C1` [PSEUDOGINSENOSIDE RT1], the IC50 in the experiment on HCT-116 [1] was greater than 100 µM; in the experiment on HL-60 [2], 91.2 µM.

`CC1(C)CC[C@]2(C(=O)O[C@@H]3O[C@H](CO)[C@@H](O)[C@H](O)[C@H]3O)CC[C@]3(C)C(=CC[C@@H]4[C@@]5(C)CC[C@H](O[C@@H]6O[C@H](C(=O)O)[C@@H](O[C@H]7O[C@@H](CO)[C@H](O)[C@H]7O)[C@H](O[C@@H]7O[C@H](CO)[C@@H](O)[C@H](O)[C@H]7O)[C@H]6O)C(C)(C)[C@@H]5CC[C@]43C)[C@@H]2C1` [STIPULEANOSIDE R2]: the IC50 in the experiment with HCT-116 [1] and in the experiment with HL-60 [2] was greater than 100 µM in each case.
